Laboratory results published in PubChem BioAssay (NCI).
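Each compound was tested at five concentrations against cells in 96-well plates for 48 hours. TGI: concentration producing complete growth inhibition.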

Legend:
Assay in all cases: inhibition of tumour cell growth, NCI panel, 48 h
[1] = test system: SF-268 CNS
[2] = test system: OVCAR-5 ovarian
[3] = test system: A549 NSCLC
[4] = test system: HCT-15 colon
[5] = test system: COLO 205 colon
[6] = test system: DMS 273 small cell lung
[7] = test system: MOLT-4 leukemia
[8] = test system: TK-10 renal
[9] = test system: HT29 colon
[10] = test system: ACHN renal
[11] = test system: UACC-257 melanoma
[12] = test system: RXF 393 renal
[13] = test system: CCRF-CEM leukemia
[14] = test system: LOX IMVI melanoma
[15] = test system: OVCAR-4 ovarian
[16] = test system: HCC-2998 colon
[17] = test system: HOP-62 NSCLC
[18] = test system: NCI-H226 lung
[19] = test system: 786-0 renal
[20] = test system: U251 CNS
[21] = test system: DLD-1 colon
[22] = test system: MALME-3M melanoma
[23] = test system: SK-MEL-2 melanoma
[24] = test system: M14 melanoma
[25] = test system: SW-620 colon
[26] = test system: EKVX NSCLC
[27] = test system: NCI-H522 lung
[28] = test system: NCI-H23 lung
[29] = test system: SF-295 CNS
[30] = test system: SN12C renal
[31] = test system: SK-MEL-5 melanoma
[32] = test system: SK-MEL-28 melanoma
[33] = test system: RPMI-8226 leukemia
[34] = test system: NCI-H460 lung
[35] = test system: HL-60(TB) leukemia
[36] = test system: CAKI-1 renal
[37] = test system: OVCAR-3 ovarian
[38] = test system: KM20L2 colon
[39] = test system: HOP-18 NSCLC
[40] = test system: SNB-78 CNS
[41] = test system: HOP-92 NSCLC
[42] = test system: OVCAR-8 ovarian
[43] = test system: KM12 colon
[44] = test system: K-562 leukemia
[45] = test system: UO-31 renal
[46] = test system: XF 498 CNS
[47] = test system: SNB-75 CNS
[48] = test system: SNB-19 CNS
[49] = test system: IGROV1 ovarian
[50] = test system: HCT-116 colon
[51] = test system: LXFL 529 NSCLC
[52] = test system: SF-539 CNS
[53] = test system: M19-MEL melanoma
[54] = test system: DMS 114 small cell lung
[55] = test system: UACC-62 melanoma
[56] = test system: SK-OV-3 ovarian
[57] = test system: A498 renal
[58] = test system: SR leukemia

CCCC(=O)CC(C)C(=O)C(=O)NC12CC3CC(CC(C3)C1)C2 (configuration not stated)
TGI [1]: > 100 µM
TGI [2]: > 100 µM
TGI [3]: > 100 µM
TGI [4]: > 100 µM
TGI [5]: > 100 µM
TGI [6]: > 100 µM
TGI [7]: > 100 µM
TGI [8]: > 100 µM
TGI [9]: > 100 µM
TGI [10]: > 100 µM
TGI [11]: > 100 µM
TGI [12]: > 100 µM
TGI [13]: > 100 µM
TGI [14]: > 100 µM
TGI [15]: > 100 µM
TGI [16]: > 100 µM
TGI [17]: > 100 µM
TGI [18]: > 100 µM
TGI [19]: > 100 µM
TGI [20]: > 100 µM
TGI [21]: > 100 µM
TGI [22]: > 100 µM
TGI [23]: > 100 µM
TGI [24]: > 100 µM
TGI [25]: > 100 µM
TGI [26]: > 100 µM
TGI [27]: > 100 µM
TGI [28]: > 100 µM
TGI [29]: > 100 µM
TGI [30]: > 100 µM
TGI [31]: > 100 µM
TGI [32]: > 100 µM
TGI [33]: > 100 µM
TGI [34]: > 100 µM
TGI [35]: > 100 µM
TGI [36]: > 100 µM
TGI [37]: > 100 µM
TGI [38]: > 100 µM
TGI [39]: > 100 µM
TGI [40]: > 100 µM
TGI [41]: > 100 µM
TGI [42]: > 100 µM
TGI [43]: > 100 µM
TGI [44]: > 100 µM
TGI [45]: > 100 µM
TGI [46]: > 100 µM
TGI [47]: > 100 µM
TGI [48]: > 100 µM

CC12OC(=O)C(C#N)C1(C)C1C(=O)CCCC12 (configuration not stated)
TGI [1]: > 100 µM
TGI [2]: > 100 µM
TGI [3]: > 100 µM
TGI [4]: > 100 µM
TGI [5]: > 100 µM
TGI [6]: > 100 µM
TGI [7]: > 100 µM
TGI [8]: > 100 µM
TGI [49]: > 100 µM
TGI [10]: > 100 µM
TGI [12]: > 100 µM
TGI [50]: > 100 µM
TGI [13]: > 100 µM
TGI [14]: > 100 µM
TGI [15]: > 100 µM
TGI [18]: > 100 µM
TGI [19]: > 100 µM
TGI [20]: > 100 µM
TGI [21]: > 100 µM
TGI [22]: > 100 µM
TGI [51]: > 100 µM
TGI [23]: > 100 µM
TGI [24]: > 100 µM
TGI [25]: > 100 µM
TGI [52]: > 100 µM
TGI [26]: > 100 µM
TGI [28]: > 100 µM
TGI [29]: > 100 µM
TGI [30]: > 100 µM
TGI [31]: > 100 µM
TGI [32]: > 100 µM
TGI [33]: > 100 µM
TGI [34]: > 100 µM
TGI [53]: > 100 µM
TGI [35]: > 100 µM
TGI [37]: > 100 µM
TGI [38]: > 100 µM
TGI [39]: > 100 µM
TGI [54]: > 100 µM
TGI [42]: > 100 µM
TGI [55]: > 100 µM
TGI [43]: > 100 µM
TGI [44]: > 100 µM
TGI [45]: > 100 µM
TGI [56]: > 100 µM
TGI [46]: > 100 µM
TGI [47]: > 100 µM
TGI [48]: > 100 µM

NC1=NC(Cn2nc(-c3ccccc3)c3ccccc3c2=O)=NNC(=O)N1
TGI [1]: > 100 µM
TGI [2]: > 100 µM
TGI [3]: > 100 µM
TGI [4]: > 100 µM
TGI [5]: > 100 µM
TGI [6]: > 100 µM
TGI [7]: > 100 µM
TGI [8]: > 100 µM
TGI [49]: > 100 µM
TGI [9]: > 100 µM
TGI [10]: > 100 µM
TGI [11]: > 100 µM
TGI [50]: > 100 µM
TGI [13]: > 100 µM
TGI [15]: > 100 µM
TGI [16]: > 100 µM
TGI [17]: > 100 µM
TGI [18]: > 100 µM
TGI [19]: > 100 µM
TGI [20]: > 100 µM
TGI [21]: > 100 µM
TGI [22]: > 100 µM
TGI [51]: > 100 µM
TGI [23]: > 100 µM
TGI [24]: > 100 µM
TGI [25]: > 100 µM
TGI [52]: > 100 µM
TGI [27]: > 100 µM
TGI [28]: > 100 µM
TGI [57]: > 100 µM
TGI [29]: > 100 µM
TGI [30]: > 100 µM
TGI [31]: > 100 µM
TGI [32]: > 100 µM
TGI [33]: > 100 µM
TGI [34]: > 100 µM
TGI [53]: > 100 µM
TGI [36]: > 100 µM
TGI [37]: > 100 µM
TGI [58]: > 100 µM
TGI [39]: > 100 µM
TGI [40]: > 100 µM
TGI [41]: > 100 µM
TGI [42]: > 100 µM
TGI [55]: > 100 µM
TGI [43]: > 100 µM
TGI [44]: > 100 µM
TGI [45]: > 100 µM
TGI [56]: > 100 µM
TGI [47]: > 100 µM
TGI [48]: > 100 µM

O=C(c1ccc(Cl)cc1)C1OC12C(=O)Nc1c(Cl)cc(Cl)cc12 (configuration not stated)
TGI [1]: > 100 µM
TGI [2]: > 100 µM
TGI [3]: > 100 µM
TGI [4]: > 100 µM
TGI [6]: > 100 µM
TGI [8]: > 100 µM
TGI [9]: > 100 µM
TGI [10]: > 100 µM
TGI [11]: > 100 µM
TGI [13]: 66.3 µM
TGI [14]: > 100 µM
TGI [16]: > 100 µM
TGI [17]: > 100 µM
TGI [18]: > 100 µM
TGI [19]: > 100 µM
TGI [20]: > 100 µM
TGI [21]: > 100 µM
TGI [22]: > 100 µM
TGI [23]: > 100 µM
TGI [25]: > 100 µM
TGI [52]: > 100 µM
TGI [26]: 65.2 µM
TGI [28]: > 100 µM
TGI [57]: > 100 µM
TGI [29]: > 100 µM
TGI [30]: > 100 µM
TGI [31]: > 100 µM
TGI [32]: > 100 µM
TGI [33]: 45.4 µM
TGI [34]: > 100 µM
TGI [37]: 77.8 µM
TGI [38]: > 100 µM
TGI [39]: > 100 µM
TGI [42]: > 100 µM
TGI [43]: > 100 µM
TGI [44]: > 100 µM
TGI [45]: > 100 µM
TGI [46]: 87.8 µM
TGI [47]: 83.4 µM
TGI [48]: > 100 µM
